Test results published in patent US4861788A, “Antibacterial 1-normon-2-yl-heterocyclic compounds” (Beecham Group plc, priority 1983, dated 1989).
Converted amounts (≈) assume the structure as drawn. Read-outs that look alike come from different tables or passages of the source.

How the values were obtained:
M. hyopneumoniae NB12 = assay: MIC against Mycoplasma in vitro (Friis broth with agarose); assay type: cell-based; settings: Mesomycoplasma hyopneumoniae
M. hyopneumoniae HK (2) = assay: as above; assay type: cell-based; settings: Mesomycoplasma hyopneumoniae, 144 h
[1] = system: M. hyopneumoniae PW/C/210; assay: as above; assay type: cell-based; settings: Mesomycoplasma hyopneumoniae, 144 h; M. hyopneumoniae PW/C/210; 6 days at 37° C; read-out: MIC
M. hyopneumoniae LABER = assay: as above; assay type: cell-based; settings: Mesomycoplasma hyopneumoniae, 144 h
M. hyopneumoniae UCD 1 = assay: as above; assay type: cell-based; settings: Mesomycoplasma hyopneumoniae, UCD1, 144 h
[2] = system: M. hyopneumoniae ATCC 25095; assay: as above; assay type: cell-based; settings: Mesomycoplasma hyopneumoniae, ATCC25095, 144 h
M. hyorhinis ATCC 23234 = assay: as above; assay type: cell-based; settings: Mesomycoplasma hyorhinis, ATCC23234, 144 h
[3] = system: M. hyosynoviae ATCC 25591; assay: as above; assay type: cell-based; settings: 144 h
M. bovis NCTC 10131 = assay: microbe, parasite or virus in culture; assay type: cell-based; settings: NCTC10131, 144 h
M. gallisepticum S6 = assay: MIC against Mycoplasma in vitro (Friis broth with agarose); assay type: cell-based; settings: Mycoplasmoides gallisepticum
M. pneumoniae ATCC 15492 = assay: as above; assay type: cell-based; settings: Mycoplasmoides pneumoniae, ATCC15492, 144 h
S. dublin S7 = assay: MIC against veterinary bacteria in vitro (Diagnostic Sensitivity Test Agar); settings: Salmonella enterica, S7, 18 h
Description: (§1) The activity of the normonyl derivatives of the Examples against various veterinarily important bacteria, was assayed in vitro using two-fold serial dilutions in Diagnostic Sensitivity Test Agar inoculated with 10^4 organisms.

S. typhimurium S18 = assay: as above; settings: Salmonella enterica, 18 h
Description: as §1

Bord. bronchiseptica B08 = assay: as above; settings: Bordetella bronchiseptica, B08, 18 h
Description: as §1

Past. multocida PA1 = assay: as above; settings: Pasteurella multocida, PA1, 18 h
Description: as §1

Past. multocida PA2 = assay: as above; settings: Pasteurella multocida, PA2, 18 h
Description: as §1

[4] = system: Erysipelothrix rhusiopathiae NCTC 8163; assay: as above; settings: NCTC8163, 18 h
Description: as §1

[5] = system: Corynebacterium pyogenes CY1; assay: as above; settings: CY1, 18 h
Description: as §1

[6] = system: Staph. aureus 152 (pen. sens); assay: as above; settings: Staphylococcus aureus, 18 h
Description: as §1

[7] = system: Strep. suis (group D) SPS11; assay: as above; settings: Streptococcus suis, 18 h
Description: as §1

Strep. dysgalactiae SPD1 = assay: as above; settings: Streptococcus dysgalactiae, SPD1, 18 h
Description: as §1

Strep. agalactiae SPA1 = assay: as above; settings: Streptococcus agalactiae, SPA1, 18 h
Description: as §1

B. subtilis ATCC 6633 = assay: as above; settings: Bacillus subtilis, ATCC6633, 18 h
Description: as §1

[8] = system: Neisseria catarrhalis 1502; assay: MIC against human bacteria in vitro (nutrient agar, chocolated horse blood); assay type: cell-based
Procedure, shortened: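 In vitro agar-dilution testing: drug dilutions prepared in nutrient medium with chocolated horse blood (5%).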

[9] = 144 h, M. hyopneumoniae NB12, 6 days at 37° C, read-out: MIC
[10] = M. hyopneumoniae HK (2), 6 days at 37° C, read-out: MIC
[11] = M. hyopneumoniae LABER, 6 days at 37° C, read-out: MIC
[12] = M. hyopneumoniae UCD 1, 6 days at 37° C, read-out: MIC
[13] = M. hyopneumoniae ATCC 25095, 6 days at 37° C, read-out: MIC
[14] = M. hyorhinis ATCC 23234, 6 days at 37° C, read-out: MIC
[15] = M. hyosynoviae ATCC 25591, 6 days at 37° C, read-out: MIC
[16] = 144 h, M. gallisepticum S6, 6 days at 37° C, read-out: MIC
[17] = M. pneumoniae ATCC 15492, 6 days at 37° C, read-out: MIC
[18] = human, Neisseria catarrhalis 1502, 18 hours at 37° C, read-out: MIC

| Compound | MIC (M. hyopneumoniae UCD 1; [12]) [µg/mL] | MIC [2, 13] [µg/mL] | MIC (M. hyorhinis ATCC 23234; [14]) [µg/mL] | MIC [3, 15] [µg/mL] | MIC (M. bovis NCTC 10131) [µg/mL] | MIC (M. gallisepticum S6; [16]) [µg/mL] | MIC (M. pneumoniae ATCC 15492; [17]) [µg/mL] | MIC (S. dublin S7) [µg/mL] | MIC (S. typhimurium S18) [µg/mL] | MIC (Bord. bronchiseptica B08) [µg/mL] | MIC (Past. multocida PA1) [µg/mL] | MIC (Past. multocida PA2) [µg/mL] | MIC [4] [µg/mL] | MIC [5] [µg/mL] | MIC [6] [µg/mL] | MIC [7] [µg/mL] | MIC (Strep. dysgalactiae SPD1) [µg/mL] | MIC (Strep. agalactiae SPA1) [µg/mL] | MIC (M. hyopneumoniae UCD 1) [µg/mL] | MIC (B. subtilis ATCC 6633) [µg/mL] | other results |
| --- | --- | --- | --- | --- | --- | --- | --- | --- | --- | --- | --- | --- | --- | --- | --- | --- | --- | --- | --- | --- | --- |
| CSc1ccc(-c2nnc(C=C(C)CC3OCC(CC4OC4C(C)C(C)O)C(O)C3O)o2)cc1 (centres unmarked) [Example 3, 2-p-Methylthiophenyl-5-(1-normon-2-yl)-1,3,4-oxadiazole A] | 1 (≈ 2.04 µM) | 1 (≈ 2.04 µM) | 0.5 (≈ 1.02 µM) | 2.5 (≈ 5.1 µM) | 0.1 (≈ 0.204 µM) | > 10 | > 10 | > 80 | > 80 | > 80 | 2.5 (≈ 5.1 µM) | 2.5 (≈ 5.1 µM) | 40 (≈ 81.5 µM) | > 80 | 2.5 (≈ 5.1 µM) | 80 (≈ 163 µM) | 10 (≈ 20.4 µM) | 10 (≈ 20.4 µM) | – | – | MIC (M. hyopneumoniae NB12; [9]): 1 µg/mL (≈ 2.04 µM); MIC (M. hyopneumoniae HK (2); [10]): 1 µg/mL (≈ 2.04 µM); MIC [1]: 0.5 µg/mL (≈ 1.02 µM); MIC (M. hyopneumoniae LABER; [11]): 1 µg/mL (≈ 2.04 µM) |
| CC(=Cc1nnc(-c2cccnc2)o1)CC1OCC(CC2OC2C(C)C(C)O)C(O)C1O (centres unmarked) [Example 5, 2-(1-Normon-2-yl)-5-(3-pyridyl)-1,3,4-oxadiazole A] | – | 1 (≈ 2.24 µM) | 1 (≈ 2.24 µM) | 1 (≈ 2.24 µM) | 0.025 (≈ 0.0561 µM) | > 10 | > 10 | > 80 | > 80 | > 80 | 1.25 (≈ 2.81 µM) | 1.25 (≈ 2.81 µM) | 80 (≈ 180 µM) | > 80 | 10 (≈ 22.4 µM) | > 80 | 10 (≈ 22.4 µM) | 20 (≈ 44.9 µM) | 2.5 (≈ 5.61 µM) | 2.5 (≈ 5.61 µM) | MIC (M. hyopneumoniae NB12; NB12, 144 h): 2.5 µg/mL (≈ 5.61 µM); MIC [1]: 1 µg/mL (≈ 2.24 µM); MIC (M. hyopneumoniae LABER; [11]): 1 µg/mL (≈ 2.24 µM) |
| CC(=Cc1nnc(-c2cccs2)o1)CC1OCC(CC2OC2C(C)C(C)O)C(O)C1O (centres unmarked) [Example 6, 2-(1-Normon-2-yl)-5-(2-thienyl)-1,3,4-oxadiazole A] | – | – | – | – | 0.05 (≈ 0.111 µM) | > 10 | > 10 | > 80 | > 80 | > 80 | 2.5 (≈ 5.55 µM) | – | 80 (≈ 178 µM) | > 80 | 5 (≈ 11.1 µM) | 80 (≈ 178 µM) | 40 (≈ 88.8 µM) | 40 (≈ 88.8 µM) | 5 (≈ 11.1 µM) | – | MIC (M. hyopneumoniae HK (2)): 5 µg/mL (≈ 11.1 µM); MIC (M. hyopneumoniae LABER): 2.5 µg/mL (≈ 5.55 µM); MIC [2]: 2.5 µg/mL (≈ 5.55 µM); MIC (M. hyorhinis ATCC 23234): 2.5 µg/mL (≈ 5.55 µM); MIC [3]: 2.5 µg/mL (≈ 5.55 µM) |
| CC(=Cc1nnc(-c2ccncc2)o1)CC1OCC(CC2OC2C(C)C(C)O)C(O)C1O (centres unmarked) [Example 7, 2-(1-Normon-2-yl)-5-(4-pyridyl)-1,3,4-oxadiazole A] | 1 (≈ 2.24 µM) | – | 0.5 (≈ 1.12 µM) | 0.5 (≈ 1.12 µM) | 0.025 (≈ 0.0561 µM) | – | – | > 80 | > 80 | > 80 | 2.5 (≈ 5.61 µM) | 0.625 (≈ 1.4 µM) | 80 (≈ 180 µM) | > 80 | 10 (≈ 22.4 µM) | > 80 | 10 (≈ 22.4 µM) | 20 (≈ 44.9 µM) | – | 2.5 (≈ 5.61 µM) | MIC (M. gallisepticum S6; S6, 144 h): > 10 µg/mL; MIC (M. pneumoniae ATCC 15492): > 10 µg/mL; MIC [8, 18]: 0.25 µg/mL (≈ 0.561 µM) |
| CC(=Cc1nnc(-c2ccco2)o1)CC1OCC(CC2OC2C(C)C(C)O)C(O)C1O (centres unmarked) [Example 8, 2-(2-Furyl)-5-(1-normon-2-yl)-1,3,4-oxadiazole A] | 5 (≈ 11.5 µM) | – | 2.5 (≈ 5.75 µM) | 2.5 (≈ 5.75 µM) | 0.1 (≈ 0.23 µM) | > 10 | > 10 | > 80 | > 80 | > 80 | 1.25 (≈ 2.88 µM) | 0.625 (≈ 1.44 µM) | > 80 | > 80 | 40 (≈ 92.1 µM) | > 80 | 40 (≈ 92.1 µM) | > 80 | – | 10 (≈ 23 µM) | MIC (M. hyopneumoniae HK (2); [10]): 10 µg/mL (≈ 23 µM); MIC [8, 18]: 0.5 µg/mL (≈ 1.15 µM) |
| CC(=Cc1nnc(-c2ccc(N(C)C)cc2)o1)CC1OCC(CC2OC2C(C)C(C)O)C(O)C1O (centres unmarked) [Example 10, 2-(4-Dimethylaminophenyl)-5-(1-normon-2-yl)-1,3,4-oxadiazole A] | – | – | – | – | 0.25 (≈ 0.513 µM) | > 10 | 10 (≈ 20.5 µM) | > 80 | > 80 | > 80 | 40 (≈ 82 µM) | 5 (≈ 10.3 µM) | 40 (≈ 82 µM) | > 80 | 5 (≈ 10.3 µM) | > 80 | 80 (≈ 164 µM) | > 80 | 2.5 (≈ 5.13 µM) | 5 (≈ 10.3 µM) | MIC (M. hyopneumoniae HK (2)): 5 µg/mL (≈ 10.3 µM); MIC (M. hyorhinis ATCC 23234): 1 µg/mL (≈ 2.05 µM); MIC [3]: 2.5 µg/mL (≈ 5.13 µM); MIC ([8]; Neisseria, 1502, 18 h): 0.5 µg/mL (≈ 1.03 µM) |
| CC(=Cc1nc(-c2ccccc2)no1)CC1OCC(CC2OC2C(C)C(C)O)C(O)C1O (centres unmarked) [Example 15, 5-(1-Normon-2-yl)-3-phenyl-1,2,4-oxadiazole A] | 10 (≈ 22.5 µM) | 5 (≈ 11.2 µM) | 5 (≈ 11.2 µM) | 10 (≈ 22.5 µM) | 0.1 (≈ 0.225 µM) | > 10 | > 10 | > 80 | > 80 | > 80 | 40 (≈ 90 µM) | – | 40 (≈ 90 µM) | > 80 | 5 (≈ 11.2 µM) | > 80 | 10 (≈ 22.5 µM) | – | – | – | MIC (M. hyopneumoniae NB12; [9]): 10 µg/mL (≈ 22.5 µM); MIC (M. hyopneumoniae HK (2); [10]): 10 µg/mL (≈ 22.5 µM); MIC [1]: 5 µg/mL (≈ 11.2 µM); MIC (M. hyopneumoniae LABER; [11]): 5 µg/mL (≈ 11.2 µM) |
| CC(=Cc1nc(-c2ccc([N+](=O)[O-])cc2)no1)CC1OCC(CC2OC2C(C)C(C)O)C(O)C1O (centres unmarked) [Example 16, 5-(1-Normon-2-yl)-3-(4-nitrophenyl)-1,2,4-oxadiazole] | – | – | 0.25 (≈ 0.511 µM) | 5 (≈ 10.2 µM) | 0.25 (≈ 0.511 µM) | > 10 | > 10 | > 80 | > 80 | 80 (≈ 163 µM) | 5 (≈ 10.2 µM) | – | 10 (≈ 20.4 µM) | > 80 | 2.5 (≈ 5.11 µM) | 80 (≈ 163 µM) | 10 (≈ 20.4 µM) | 5 (≈ 10.2 µM) | 0.5 (≈ 1.02 µM) | 2.5 (≈ 5.11 µM) | MIC (M. hyopneumoniae LABER): 0.25 µg/mL (≈ 0.511 µM); MIC [2]: 0.1 µg/mL (≈ 0.204 µM) |
| CC(=Cc1noc(-c2ccccc2)n1)CC1OCC(CC2OC2C(C)C(C)O)C(O)C1O (centres unmarked) [Example 17, 3-(1-Normon-2-yl)-5-phenyl-1,2,4-oxadiazole] | – | 1 (≈ 2.25 µM) | 2.5 (≈ 5.62 µM) | 1 (≈ 2.25 µM) | 0.05 (≈ 0.112 µM) | 10 (≈ 22.5 µM) | > 10 | > 80 | > 80 | > 80 | 2.5 (≈ 5.62 µM) | – | 10 (≈ 22.5 µM) | > 80 | 1.25 (≈ 2.81 µM) | 20 (≈ 45 µM) | 2.5 (≈ 5.62 µM) | 5 (≈ 11.2 µM) | 2.5 (≈ 5.62 µM) | 0.625 (≈ 1.41 µM) | – |
